Source: ChEMBL document CHEMBL1148582, “Metal-mediated inhibition of Escherichia coli methionine aminopeptidase: structure-activity relationships and development of a novel scoring function for metal-ligand interactions” (J Med Chem, 2006)
Active and inactive are the calls of the source. No cut-off for these calls is given here.

How the values were obtained:
[1] = biological target: T1, Methionine aminopeptidase (Escherichia coli K-12) (UniProt P0AE18); test: Inhibition of Mn2+ loaded MetAP expressed in Escherichia coli at upto 10 uM
T1 sequence (whole entry): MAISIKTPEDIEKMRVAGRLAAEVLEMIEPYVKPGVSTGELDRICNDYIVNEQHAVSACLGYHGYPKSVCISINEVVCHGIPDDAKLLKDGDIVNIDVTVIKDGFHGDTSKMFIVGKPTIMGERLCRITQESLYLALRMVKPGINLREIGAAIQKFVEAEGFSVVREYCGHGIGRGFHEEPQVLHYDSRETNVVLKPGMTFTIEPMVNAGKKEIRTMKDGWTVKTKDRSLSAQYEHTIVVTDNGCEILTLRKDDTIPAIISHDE

[2] = biological target: T2, Methionine aminopeptidase (Escherichia coli K-12, UniProt P0AE18); test: Inhibition of Co2+ loaded MetAP expressed in Escherichia coli
T2 sequence (P0AE18 whole entry): T1 sequence (whole entry)

[3] = biological target: T1, Methionine aminopeptidase (Escherichia coli K-12); test: Inhibition of Co2+ loaded MetAP expressed in Escherichia coli at 10 uM

Row | SMILES | inhibition [1] | IC50 [2] [nM] | inhibition [3] [%]
1 | c1ccc(-c2nc3ncc[nH]c-3n2)nc1 | inactive | 240 | –
2 | c1ccc(-c2nc3ccccc3[nH]2)nc1 | inactive | 574 | –
3 | Cc1ccc2nc(-c3ccccn3)[nH]c2c1 | inactive | – | –
4 | COC(=O)Nc1nc2cc(C(=O)c3ccccc3)ccc2[nH]1 | inactive | – | 29
5 | COC(=O)Nc1nc2ccccc2[nH]1 [CARBENDAZIM] | inactive | > 10000 | 17.6
6 | c1ccc(-c2nc3cc[nH]cc-3n2)nc1 | inactive | 550 | –
7 | CC(C)(C)c1ccc2[nH]c(-c3cscn3)nc2c1 | inactive | – | –
8 | O=C(c1ccccc1)c1ccc2[nH]c(-c3cscn3)nc2c1 | inactive | – | –
9 | O=C(c1ccccc1)c1ccc2[nH]c(-c3ccccn3)nc2c1 | inactive | – | –
10 | NC(=S)Nc1nc2ccccc2[nH]1 | – | 8960 | –
11 | Fc1ccc2nc(-c3ccccn3)[nH]c2c1 | inactive | – | –
12 | CCCSc1ccc2nc(NC(=O)OC)[nH]c2c1 [ALBENDAZOLE] | – | > 10000 | –
13 | N#Cc1ccc2[nH]c(-c3ccccn3)nc2c1 | inactive | 431 | –
14 | Oc1cccnc1-c1nc2ccccc2[nH]1 | inactive | 777 | –
15 | c1cc2nc(-c3cscn3)[nH]c2cn1 | – | 1720 | –
16 | c1ccc(-c2nc3ccc[nH]c-3n2)nc1 | inactive | 105 | –
17 | COC(=O)Nc1nc2cc(Sc3ccccc3)ccc2[nH]1 | inactive | – | 6.07
18 | c1ccc2[nH]c(-c3cscn3)nc2c1 [THIABENDAZOLE] | inactive | 472 | –
19 | O=c1cccc(-c2nc3ccccc3[nH]2)[nH]1 | – | 1340 | –
20 | Nc1ccc2[nH]c(-c3cscn3)nc2c1 | inactive | 3390 | –
21 | Cc1ccc2[nH]c(-c3ccccn3)nc2c1 | – | 2090 | –
22 | Fc1ccc2[nH]c(-c3cscn3)nc2c1 | inactive | – | –
23 | Nc1ccc2nc(-c3ccccn3)[nH]c2c1 | – | 967 | –
24 | Clc1ccc2[nH]c(-c3cscn3)nc2c1 | inactive | 5150 | –
25 | O=[N+]([O-])c1ccc2[nH]c(-c3cscn3)nc2c1 | inactive | – | –
26 | COC(=O)Nc1nc2ccc(Sc3ccccc3)cc2[nH]1 [FENBENDAZOLE] | – | > 10000 | –
27 | c1cncc(-c2nc3ccccc3[nH]2)c1 | inactive | > 10000 | 4.21

Row | SMILES | inhibition [1] | IC50 [2] [nM] | inhibition [3] [%]
28 | Clc1ccc2nc(-c3ccccn3)[nH]c2c1 | inactive | 1690 | –
29 | c1ccc(Cn2c(-c3cscn3)nc3ccccc32)cc1 | inactive | – | –
30 | O=C(c1ccccc1)c1ccc2nc(-c3ccccn3)[nH]c2c1 | – | 403 | –
31 | Fc1ccc2[nH]c(-c3ccccn3)nc2c1 | – | 1510 | –
32 | Cc1ccc2[nH]c(-c3cscn3)nc2c1 | inactive | – | –
33 | Cn1c(-c2cscn2)nc2ccccc21 | inactive | – | –
34 | CC(C)(C)c1ccc2nc(-c3ccccn3)[nH]c2c1 | – | 2600 | –
35 | Cc1cc2nc(-c3cscn3)[nH]c2cc1C | inactive | > 10000 | 47.8
36 | c1c[nH]c2nc(-c3cscn3)nc-2c1 | inactive | 78 | –
37 | c1ccc2[nH]c(-c3cnccn3)nc2c1 | inactive | 4590 | –
38 | c1ccc(Cn2c(-c3ccccn3)nc3ccccc32)cc1 | inactive | 992 | –
39 | c1ccc2[nH]c(Nc3nccs3)nc2c1 | inactive | 540 | –
40 | CCCSc1ccc2[nH]c(NC(=O)OC)nc2c1 | inactive | – | 15.4
41 | c1cc2[nH]c(-c3cscn3)nc2cn1 | inactive | – | –
42 | c1ccc(-c2nc3c[nH]cnc-3n2)nc1 | inactive | 376 | –
43 | COC(=O)Nc1nc2ccc(C(=O)c3ccccc3)cc2[nH]1 [MEBENDAZOLE] | – | > 10000 | –
44 | c1coc(-c2nc3ccccc3[nH]2)c1 [FUBERIDAZOLE] | inactive | > 10000 | 10.4
45 | O=[N+]([O-])c1ccc2[nH]c(-c3ccccn3)nc2c1 | inactive | 162 | –
46 | CC(C)(C)c1ccc2nc(-c3cscn3)[nH]c2c1 | – | 3910 | –
47 | Oc1cccc(-c2nc3ccccc3[nH]2)n1 | inactive | – | –
48 | N/C(S)=N/c1nc2ccccc2[nH]1 | inactive | – | –
49 | Oc1ccccc1-c1nc2ccccc2[nH]1 | inactive | > 10000 | 30.4
50 | Nc1ccc2[nH]c(-c3ccccn3)nc2c1 | inactive | – | –
51 | c1csc(-c2nc3ccccc3[nH]2)c1 | inactive | > 10000 | 5.36
52 | Cc1cc2nc(-c3ccccn3)[nH]c2cc1C | inactive | 2430 | –
53 | CC(C)(C)c1ccc2[nH]c(-c3ccccn3)nc2c1 | inactive | – | –
